Reference: patent publication US20150274664A1 (MERCK SHARP & DOHME CORP., priority 2012, published 2015)

Biological target: T1, human GPR119 (Homo sapiens, UniProt Q8TDV5)
T1 construct: expressed in transfected cells; host or cells: HEK293
T1 sequence (Q8TDV5 1-335): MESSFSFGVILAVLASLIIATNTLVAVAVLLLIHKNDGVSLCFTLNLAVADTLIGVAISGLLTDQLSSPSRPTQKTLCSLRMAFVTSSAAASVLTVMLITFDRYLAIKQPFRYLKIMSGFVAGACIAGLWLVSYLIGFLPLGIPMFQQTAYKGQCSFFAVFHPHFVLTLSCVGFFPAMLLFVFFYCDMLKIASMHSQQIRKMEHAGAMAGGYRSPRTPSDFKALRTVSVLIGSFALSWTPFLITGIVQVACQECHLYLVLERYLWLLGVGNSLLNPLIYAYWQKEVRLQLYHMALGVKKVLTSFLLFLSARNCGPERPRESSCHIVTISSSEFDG
Test: Measurement of GPR119 signaling using LANCE 384-well cAMP kit (LCMP assay)
Format: cell-based
Details: HEK293 cells stably transfected with human GPR119
Method: Measurement of GPR119 Signaling Using LANCE 384-Well cAMP Kit (LCMP Assay)
Human embryonic kidney (HEK) 293 cell lines stably transfected with human GPR119 were maintained in DMEM media containing FBS, penicillin-streptomycin, HEPES, and hygromycin. For the cAMP assay, the transfected cells were harvested using a non-enzymatic cell dissociation solution (GIBCO 2672), pelleted and resuspended in stimulation buffer (DMEM, 25 mM Hepes, 0.1% BSA, pH 7.4 in the presence of 100 μM phosphodiesterase inhibitors). The adenylate cyclase assay was constructed following the LANCE™ cAMP Kit (Perkin Elmer, AD0264) instructions. Briefly, cells with Alexa Fluor® 647-anti cAMP antibody were incubated with 10 point series diluted test article in stimulation buffer with a final concentration of 2.5% DMSO for 45 minutes. The reaction was stopped by incubating with the supplied detection buffer containing the europium chelate of the Eu-SA/Biotin-cAMP tracer for 3 hours. The assay was performed in duplicate in a 384 well plate for duplicate plates. Fluorescence at 665 nm was measured using a PHERAstar instrument. Basal activity was determined using a DMSO control and maximum response was defined as cAMP stimulation produced by an internal agonist control. Standard cAMP concentrations were assayed concurrently for conversion of fluorescence signal to cAMP level. The data was analyzed using 4-parameter curve fit in Microsoft Excel.

| SMILES | EC50 [nM] |
| --- | --- |
| COCc1cnc(N2CCC([C@H]3C[C@@H]3CCOc3ccc(CC(=O)N4CCC4)cc3F)CC2)nc1 [Example 63, 1-(azetidin-1-yl)-2-(3-fluoro-4-(2-((1R,2R)-2-(1-(5-(methoxymethyl)pyrimidin-2-yl)piperidin-4-yl)cyclopropyl)ethoxy)phenyl)ethanone] | 15 |
| CC(C)c1noc(N2CCC([C@@H]3C[C@H]3CCOc3ccc(S(C)(=O)=O)c(F)c3)CC2)n1 [Example 65, 5-(4-((1S,2S)-2-(2-(3-fluoro-4-(methylsulfonyl)phenoxy)ethyl)cyclopropyl)piperidin-1-yl)-3-isopropyl-1,2,4-oxadiazole] | 7.7 |
| CC(C)c1noc(N2CCC([C@@H]3C[C@H]3CCOc3ccc(S(C)(=O)=O)cc3F)CC2)n1 [Example 66, 5-(4-((1S,2S)-2-(2-(2-fluoro-4-(methylsulfonyl)phenoxy)ethyl)cyclopropyl)piperidin-1-yl)-3-isopropyl-1,2,4-oxadiazole] | 3.5 |
| CC(C)c1noc(N2CCC([C@@H]3C[C@H]3CCOc3ccc(-n4cnnn4)cc3F)CC2)n1 [Example 67, 5-(4-((1S,2S)-2-(2-(2-fluoro-4-(1H-tetrazol-1-yl)phenoxy)ethyl)cyclopropyl)piperidin-1-yl)-3-isopropyl-1,2,4-oxadiazole] | 6.2 |
| CC(C)c1noc(N2CCC([C@H]3C[C@@H]3CCOc3ccc(-n4cnnn4)cc3F)CC2)n1 [Example 68, 5-(4-((1R,2R)-2-(2-(2-fluoro-4-(1H-tetrazol-1-yl)phenoxy)ethyl)cyclopropyl)piperidin-1-yl)-3-isopropyl-1,2,4-oxadiazole] | 3.5 |
| CC(C)c1noc(N2CCC([C@@H]3C[C@H]3CCOc3ccc(CC(=O)N4CCC4)c(F)c3)CC2)n1 [Example 69, 1-(azetidin-1-yl)-2-(2-fluoro-4-(2-((1S,2S)-2-(1-(3-isopropyl-1,2,4-oxadiazol-5-yl)piperidin-4-yl)cyclopropyl)ethoxy)phenyl)ethanone] | 2.2 |
| CC(C)c1noc(N2CCC([C@@H]3C[C@H]3CCOc3ccc(CC(=O)N4CCC4)cc3F)CC2)n1 [Example 70, 1-(azetidin-1-yl)-2-(3-fluoro-4-(2-((1S,2S)-2-(1-(3-isopropyl-1,2,4-oxadiazol-5-yl)piperidin-4-yl)cyclopropyl)ethoxy)phenyl)ethanone] | 6.8 |
| CCS(=O)(=O)c1ccc(OCC[C@@H]2C[C@H]2C2CCN(c3nc(C(C)C)no3)CC2)c(F)c1 [Example 71, 5-(4-((1S,2S)-2-(2-(4-(ethylsulfonyl)-2-fluorophenoxy)ethyl)cyclopropyl)piperidin-1-yl)-3-isopropyl-1,2,4-oxadiazole] | 3.8 |
| CC(C)c1noc(N2CCC([C@H]3C[C@@H]3CCOc3ccc(CC(=O)N4CCC4)c(F)c3)CC2)n1 [Example 72, 1-(azetidin-1-yl)-2-(2-fluoro-4-(2-((1R,2R)-2-(1-(3-isopropyl-1,2,4-oxadiazol-5-yl)piperidin-4-yl)cyclopropyl)ethoxy)phenyl)ethanone] | 2.6 |
| COCc1noc(N2CCC([C@H]3C[C@@H]3CCOc3ccc(CC(=O)N4CCC4)c(F)c3)CC2)n1 [Example 73, 1-(azetidin-1-yl)-2-(2-fluoro-4-(2-((1R,2R)-2-(1-(3-(methoxymethyl)-1,2,4-oxadiazol-5-yl)piperidin-4-yl)cyclopropyl)ethoxy)phenyl)ethanone] | 6.4 |
| CC(C)c1noc(N2CCC([C@H]3C[C@@H]3CCOc3ccc(CC(=O)N4CCC4)cc3F)CC2)n1 [Example 74, 1-(azetidin-1-yl)-2-(3-fluoro-4-(2-((1R,2R)-2-(1-(3-isopropyl-1,2,4-oxadiazol-5-yl)piperidin-4-yl)cyclopropyl)ethoxy)phenyl)ethanone] | 9.5 |
| CC(C)c1noc(N2CCC([C@H]3C[C@@H]3CCOc3ccc(CC(=O)N(C)C)c(F)c3)CC2)n1 [Example 75, 2-(2-fluoro-4-(2-((1R,2R)-2-(1-(3-isopropyl-1,2,4-oxadiazol-5-yl)piperidin-4-yl)cyclopropyl)ethoxy)phenyl)-N,N-dimethylacetamide] | 8.1 |
